Data as given in publication PMC5671894 (Journal of biological inorganic chemistry : JBIC : a …, 2017).
Where two headings read alike, the source gives them in different places.

Columns and labels:
[1] = molecular target: T1, soluble portion of human PTP1B (residues 1-321) (Homo sapiens, UniProt P18031); assay: Steady-state inhibition of PTP1B-catalyzed hydrolysis of pNPP; type: biochemical; conditions: substrate pNPP; for Ki: 0.1 M NaCl, pH 5, 22° C, N2-purged
T1 sequence (P18031 1-321): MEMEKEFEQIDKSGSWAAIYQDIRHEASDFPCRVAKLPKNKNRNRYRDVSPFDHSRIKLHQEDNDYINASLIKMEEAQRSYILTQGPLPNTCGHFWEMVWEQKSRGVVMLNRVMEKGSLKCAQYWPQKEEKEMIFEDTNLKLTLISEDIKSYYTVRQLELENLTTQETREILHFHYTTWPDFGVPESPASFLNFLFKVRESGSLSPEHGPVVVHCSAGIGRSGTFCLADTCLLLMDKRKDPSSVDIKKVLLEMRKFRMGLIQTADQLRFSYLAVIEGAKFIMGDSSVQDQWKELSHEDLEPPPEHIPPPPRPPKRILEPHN

[2] = system: fused protein construct of glutathione-S-transferase and the full length PTP1B polypeptide chain (435 residues); conditions: substrate pNPP; cited from earlier work
[3] = system: PTP1B; conditions: substrate pNPP; cited from earlier work
[4] = system: PTP1B; conditions: substrate DADEpYLIPQQG; malachite green, 30 min, not steady-state; cited from earlier work
[5] = molecular target: PTP1B; conditions: ref Makinen, M. W. and Zhou, K. I., unpublished observations; cited from earlier work
[6] = molecular target: T1, soluble portion of human PTP1B (residues 1-321); type: biochemical
[7] = molecular target: T1, soluble portion of human PTP1B (residues 1-321); type: biochemical; conditions: substrate hydrolysis, no inhibitor; this study
[8] = system: Rat PTP1 (residues 1–323); conditions: 0.1 M ionic strength, pH 5.5; cited from earlier work

With `Cc1[nH]ccc(=O)c1[O-].Cc1[nH]ccc(=O)c1[O-].[O]=[V+2]` [VO(mpp)2, bis(3-hydroxy-2-methyl-4(1H)pyridinonato)oxidovanadium(IV)] the mode of inhibition [1] was “competitive inhibition” and the Ki [1] was 38.2 ± 0.5 µM.
In the case of `Cc1occc(=O)c1[O-].Cc1occc(=O)c1[O-].[O]=[V+2]` [VO(Me-malto)2, bis(2-methyl-maltolato)oxidovanadium(IV)], the mode of inhibition [2] is listed as “mixed inhibition”.
In the case of `CCc1oc2cc(S(=O)(=O)Nc3ccc(S(N)(=O)=O)cc3)ccc2c1C(=O)c1cc(Br)c(O)c(Br)c1` [Compound 2, 3-(3,5-dibromo-4-hydroxy-benzoyl)-2-ethyl-benzofuran-6-sulfonic acid (4-sulfamoyl-phenyl)amide], the mode of inhibition [3] is given as “noncompetitive inhibition”.
For `CC(=O)/C=C(/C)[O-].CC(=O)/C=C(/C)[O-].[O]=[V+2]` [VO(acac)2, bis(acetylacetonato)oxidovanadium(IV)], the mode of inhibition [4] is listed as “uncompetitive behavior”.
For `CC(=O)/C=C(/C)O` [Mg(acac)2], the Ki [5] is given as greater than 600 µM.
In the case of `CCc1occc(=O)c1[O-].CCc1occc(=O)c1[O-].[O]=[V+2]` [VO(Et-malto)2, bis(2-ethyl-maltolato)oxidovanadium(IV)], the mode of inhibition [1] is reported as “noncompetitive inhibition”, the Ki [1] is reported as 14.8 ± 1.4 µM and the mode of inhibition ([6]; substrate EGFR^988-998 (DADEpYLIPQQG)) is reported as “noncompetitive”. It also gave a Ki ([6]; substrate EGFR^988–998, 0.1 M NaCl, pH 6, 20° C, N2-purged) of 0.14 ± 0.01 µM.
In the case of `O=[N+]([O-])c1ccc(OP(=O)(O)O)cc1` [pNPP, para-nitrophenylphosphate], the Km [7] is listed as 460 ± 120 µM, the kcat [7] is listed as 62.9 ± 12.0 s⁻¹ and the Km [8] is listed as 339 ± 16 µM. The kcat [8] was 69.2 ± 1.1 s⁻¹.
